Measured values: patent US20230416258A1, “BENZ[…], AND PREPARATION METHOD THEREFOR AND USE THEREOF” (CHINA PHARMACEUTICAL UNIVERSITY, priority 2020, published 2023)
Where two headings read alike, the source gives them in different places.

Tests used:
KM mice = assay: Test for drug-induced disappearance of righting reflex in mice; assay type: in vivo; details: single rapid bolus via tail vein
In short: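 Latency to, and duration of, righting reflex loss were recorded after one fast tail-vein bolus. Animals: randomized female KM mice weighing 18–25 g.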

SD rats [1] = assay: Test for drug-induced disappearance of righting reflex in rats; assay type: in vivo; details: single rapid bolus via tail vein
Excerpt: In anesthetic drug experiments, latency generally refers to the time from the start of administration to the loss of consciousness of the subject. The shorter latency is preferred, indicating a rapid onset of action after administration. The duration of anesthesia generally refers to the duration of time from the loss of consciousness to the restoration of consciousness of the subject. The duration of the drug will vary from animal model to animal species. Too long anesthesia may produce adverse cardiovascular and respiratory responses, such as adverse neurological effects to the subject, including sleepiness and dizziness; meanwhile, too short duration of anesthesia may affect the anesthesia effect, causing problems such as increase of anesthesia dosage during the operation.
SD rats (male, 200-280 g) were randomly grouped and subjected to a single administration by rapid bolus via the tail vein. The latency and duration of righting reflex in the rats were recorded.

SD rats [2] = assay: Induction of anesthesia in rats by continuous infusion of drug for 20 min; assay type: in vivo; details: initial dose 20 mg/kg bolus, maintenance dose 0.2 (mg/kg)/min for 20 min, after infusion completed
Experimental: SD rats (male, 200-280 g) were randomly grouped and subjected to administration of an initial dose by rapid bolus via the tail vein, followed by a continuous infusion with a maintenance dose for 20 min.
After the infusion was completed, the duration of the righting reflex and the time from wake-up to recovery in rats were recorded.

[3] = test system: GABA-activated Cl− current (GABAA receptor) in HEK 293T cells; assay: Effect of drugs on GABA-activated current in cells by cell patch clamp; assay type: cell-based; details: for Enhancement percentage Emax for 2 μM GABA current (within 3-30 μM): corresponding concentration 20 μM
Experimental: Test compounds were dissolved at various concentrations in an extracellular buffer (140 mM NaCl, 4.7 mM KCl, 10 mM HEPES, 2 mM CaCl2), 10 mM glucose, 1 mM MgCl2, pH 7.4). HEK 293T cells were seeded on glass coverslips and cultured in DMEM media at 37° C. with 5% CO2 for 24 h. GABA Cl^− current was subjected to whole cell recording using an HEKA EPC 10USB patch clamp amplifier. 2 μM GABA was used for exciting Cl^− current, with the membrane potential clamped at −60 mV. The cells were treated with the test compound and 2 μM GABA simultaneously, and the induction effect on and Emax of Cl^− current in the same cell were recorded.
Maximum enhancement percentage Emax for 2 μM GABA current and corresponding concentration (μM): 100% for normal humans. The greater the percentage, the lower the corresponding concentration, and the greater the depth of anesthesia.

hCMEC/D3 cells = assay: Rate of drug passing through in vitro blood-brain barrier (Transwell); assay type: in vitro ADME; details: hCMEC/D3 monolayer, compound 0.1 mg/mL
Experimental: A Transwell device (pore size: 5.0 μm) was placed in a 24-well cell culture well; then hCMEC/D3 cells at 1×10^5 cells/mL were transferred to the upper microwells of Transwell at 150 μL/well, and cell culture medium was added to the lower microwells. After the bottom was covered by a single layer of the cells, the medium in the wells was replaced with EBM-2 complete medium containing 1% FBS, and the cells were cultured in a CO2 incubator for 10 days until a fully dense single layer of the cells was formed. When a fully dense single layer of the cells was formed, the compound at 0.1 mg/mL was added to the lower medium, and after 5 min, the concentration of the compound in the upper medium was measured to calculate the permeability:
Pcompound%=Cupper compound/Clower compound×100%

[4] = In vitro plasma half-life of drug; assay type: in vitro ADME, SD rats; details: SD rat plasma, 37° C.; for half-life at 0.4 mg/mL: plasma (heparin sodium)
Experimental: Preparation of plasma: after the SD rats were fasted and kept with water for 12 h, blood was collected through orbital venous plexus. The freshly collected blood was added into a centrifuge tube containing heparin sodium and centrifuged at 5000 rpm for 10 min at 4° C. The supernatant was slowly pipetted and subpackaged. Finally, the collected SD rat plasma was sealed, marked, and stored at −20° C. for later use.
Preparation of target compound sample: the target compound was precisely weighed by an analytical balance and prepared into a stock solution at a concentration of 2 mg/mL (solvent: Vacetone:VTween 80:Vnormal saline=1:1:3) for later use.
Determination of in vitro half-life of target compound sample: 20 μL of test compound stock solution and 80 μL of rat plasma were mixed uniformly. Nine parallel ep tubes were taken, marked as corresponding test tubes of 0 min, 1 min, 2 min, 3 min, 5 min, 10 min, 15 min, 20 min, and 30 min, respectively, and placed in a water bath at 37° C. for incubation for 0 min, 1 min, 2 min, 3 min, 5 min, 10 min, 15 min, 20 min, and 30 min, respectively. 50 μL of mixed solution were taken from the corresponding ep tube at each time point, and […] of acetonitrile was added for precipitating protein. The mixture was vortexed for 10 min using a mixer and centrifuged at 12000 rpm for 15 min. Then, the supernatant was centrifuged at 12000 rpm for 10 min. The optimal detection method for the target compound in the MRM mode was determined using Intellistat software in UPLC-MS/MS, the peak area of the corresponding mass spectrum was integrated, and the plasma half-life of the compound was calculated.

[5] = read-out: Positive enhancement EC50 (μM) for 2 μM GABA-induced current, −60 mV

Row | SMILES | Duration (KM mice; 60 mg/kg) [min] | Latency (KM mice; 60 mg/kg) [min] | Latency (SD rats [1]) [min] | Duration of anesthesia (SD rats [2]) [min] | Time from wake-up to recovery (SD rats [2]) [min] | EC50 [3, 5] [µM] | Enhancement percentage Emax for 2 μM GABA current (within 3-30 μM) ([3]; −60 mV) | In vitro blood-brain barrier, compound permeability at 5 min (hCMEC/D3 cells) [%] | half-life at 0.4 mg/mL [4] [s] | Duration (KM mice; 30 mg/kg) [min] | Latency (KM mice; 30 mg/kg) [min] | Duration (SD rats [1]) [min] | EC50 ([3]; 2 μM GABA, −60 mV, read-out: Positive enhancement EC50 (μM) for 2 μM GABA-induced current) [µM] | In vitro plasma half-life [4] [s]
1 | COC(=O)CC[C@@H]1N=C(c2ccccc2Cl)c2cc(Br)ccc2-n2c(SC(C)=O)nnc21 [Compound 39, methyl (S)-3-(8-bromo-6-(2-chlorophenyl)-1-(acetylthio)-4H-benzo[f][1,2,4]triazolo[4,3-a][1,4]diazepin-4-yl)propionate] | 9.67 | 0.19 | 0.38 | 7.86 | 11.2 | 0.88 | 272% (20 μM) | 82.6 | 25.8 |  |  |  |  | 
2 | COC(=O)CC[C@@H]1N=C(c2ccccc2F)c2cc(Br)ccc2-n2c(SCCN3CCOCC3)nnc21 [Compound 52, methyl (S)-3-(8-bromo-6-(2-fluorophenyl)-1-((2-morpholinoethyl)thio)-4H-benzo[f][1,2,4]triazolo[4,3-a][1,4]diazepin-4-yl)propionate] | 7.22 | 0.94 | 0.33 | 6.25 | 16.2 | 0.47 | 293% (20 μM) | 80.1 | 21.6 | 5.38 | 1.3 |  |  | 
3 | COC(=O)CC[C@@H]1N=C(c2ccccc2F)c2cc([N+](=O)[O-])ccc2-n2c(SCCN3CCOCC3)nnc21 [Compound 53, methyl (S)-3-(8-nitro-6-(2-fluorophenyl)-1-((2-morpholinoethyl)thio)-4H-benzo[f][1,2,4]triazolo[4,3-a][1,4]diazepin-4-yl)propionate] | 9.98 | 0.42 | 0.18 | 4.17 | 13.5 | 0.53 | 285% (20 μM) | 69.9 | 19.8 |  |  |  |  | 
4 | COC(=O)CC[C@@H]1N=C(c2ccccc2F)c2cc([N+](=O)[O-])ccc2-n2c(SCCCN(C)C)nnc21 [Compound 59, methyl (S)-3-(8-nitro-1-((3-(dimethylamino)propyl)thio)-6-(2-fluorophenyl)-4H-benzo[f][1,2,4]triazolo[4,3-a][1,4]diazepin-4-yl)propionate] | 9.62 | 0.37 | 0.22 | 4.89 | 31.3 | 0.79 | 252% (20 μM) | 75.7 | 15 |  |  |  |  | 
5 | COC(=O)CC[C@@H]1N=C(c2ccccc2Cl)c2cc(Br)ccc2-n2c(SCCN3CCOCC3)nnc21 [Compound 82, methyl (S)-3-(8-bromo-6-(2-chlorophenyl)-1-((2-morpholinoethyl)thio)-4H-benzo[f][1,2,4]triazolo[4,3-a][1,4]diazepin-4-yl)propionate] |  |  | 0.41 | 10.27 | 20.8 | 0.39 | 311% (20 μM) | 80.1 | 22.2 | 8.37 | 0.31 |  |  | 
6 | COC(=O)CC[C@@H]1N=C(c2ccccc2Cl)c2cc([N+](=O)[O-])ccc2-n2c(SCCN3CCOCC3)nnc21 [Compound 83, methyl (S)-3-(8-nitro-6-(2-chlorophenyl)-1-((2-morpholinoethyl)thio)-4H-benzo[f][1,2,4]triazolo[4,3-a][1,4]diazepin-4-yl)propionate] | 14.58 | 0.19 | 0.16 | 28.66 | 16.3 | 0.57 | 287% (20 μM) | 77.3 | 16.8 | 7.89 | 0.28 |  |  | 
7 | COC(=O)CC[C@@H]1N=C(c2ccccc2Cl)c2cc(Br)ccc2-n2c(SCCCN3CCN(CCO)CC3)nnc21 [Compound 97, methyl (S)-3-(8-bromo-6-(2-chlorophenyl)-1-((3-(4-(2-hydroxyethyl)piperazin-1-yl)propyl)thio)-4H-benzo[f][1,2,4]triazolo[4,3-a][1,4]diazepin-4-yl)propionate] | 17.07 | 0.93 | 0.18 | 6.43 | 17.4 | 0.84 | 238% (20 μM) | 84.6 | 36.6 |  |  |  |  | 
8 | COC(=O)CC[C@@H]1N=C(c2ccccc2)c2cc(Cl)ccc2-n2c(SC)nnc21 [Compound 102, methyl (S)-3-(8-chloro-1-(methylthio)-6-phenyl-4H-benzo[f][1,2,4]triazolo[4,3-a][1,4]diazepin-4-yl)propionate] | 7.47 | 0.39 | 0.37 | 4.27 | 25.5 | 0.48 | 291% (20 μM) | 87.1 | 16.2 | 17.24 | 1.13 |  |  | 
9 | COC(=O)CC[C@@H]1N=C(c2ccccc2F)c2cc(Cl)ccc2-n2c1n[nH]c2=S [Tautomer of compound 1, methyl (S)-3-(8-chloro-6-(2-fluorophenyl)-1-thio-2,4-dihydro-1H-benzo[f][1,2,4]triazolo[4,3-a][1,4]diazepin-4-yl)propionate] |  |  | 0.68 | 3.29 | 9.6 |  | 234% (20 μM) | 76.8 |  | 3.47 | 0.21 | 11.03 | 0.72 | 279
